Like-named read-outs stand apart in the source and are kept apart here.
Assays:
[1] = system: Phakopsora pachyrhizi (the causal agent of Asian soybean rust); assay: Test A: preventive spray on soybean seedlings, Asian soybean rust, visual disease rating; format: in vivo; conditions: for pest or weed control at 10 µg/mL: read-out: Test A disease control rating
Description: (§1) General protocol for preparing test suspensions for Tests A-D: the test compounds were first dissolved in acetone in an amount equal to 3% of the final volume and then suspended at the desired concentration (in ppm) in acetone and purified water (50/50 mix by volume) containing 250 ppm of the surfactant PEG400 (polyhydric alcohol esters). The resulting test suspensions were then used in Tests A-D.
(§2) The test suspension was sprayed to the point of run-off on soybean seedlings. The following day the seedlings were inoculated with a spore suspension of Phakopsora pachyrhizi (the causal agent of Asian soybean rust) and incubated in a saturated atmosphere at 22° C. for 24 h and then moved to a growth chamber at 22° C. for 8 days, after which time visual disease ratings were made.
(§3) The test results for Tests A-C presented in Table A below for compounds of Formula 1 illustrate the fungicidal activity of component (a) contributing to the plant disease control utility of compositions comprising component (a) in combination with component (b) according to the present invention. In the Table, a rating of 100 indicates 100% disease control and a rating of 0 indicates no disease control (relative to the controls). A dash (-) indicates the compound was not tested. The test suspensions were sprayed at the concentration listed in the column “Rate in ppm”, unless otherwise indicated. An asterisk “*” next to the rating indicates a 250 ppm test suspension was used, a double asterisk “**” next to the rating indicates a 100 ppm test suspension was used, and a triple asterisk “***” next to the rating indicates a 50 ppm test suspension was used.

[2] = system: Puccinia recondita f. sp. tritici (the causal agent of wheat leaf rust); assay: Test C: preventive spray on wheat seedlings, wheat leaf rust, visual disease rating; format: in vivo; conditions: for pest or weed control at 10 µg/mL: read-out: Test C disease control rating
Description: as §1
as §2, with “on wheat” for “on soybean”, “of Puccinia recondita f. sp. tritici;” for “of Phakopsora pachyrhizi”, “of wheat leaf” for “of Asian soybean”, “at 20°” for “at 22°”, “24 h,” for “24 h”, “for 6” for “for 8”
as §3

[3] = Phakopsora pachyrhizi, 216 h, test suspension 10 ppm, soybean seedlings, 100 = 100% disease control, 0 = no control
[4] = Puccinia recondita, 168 h, test suspension 10 ppm, wheat seedlings
[5] = test suspension 10 ppm, soybean seedlings, 100 = 100% disease control, 0 = no control
[6] = test suspension 10 ppm, wheat seedlings
[7] = test suspension 50 ppm, soybean seedlings
[8] = test suspension 50 ppm, wheat seedlings

SMILES	Test A disease control rating [1, 5]	Test C disease control rating [2, 6]	other results
O=c1ccc(Cl)nn1Cc1ccc(-c2noc(C(F)(F)F)n2)cc1 [Compound 4, 6-chloro-2-[[4-[5-(trifluoromethyl)-1,2,4-oxadiazol-3-yl]phenyl]methyl]-3(2H)-pyridazinone]			pest or weed control at 50 µg/mL ([1]; Phakopsora pachyrhizi, 216 h, test suspension 50 ppm, soybean seedlings): 100%; pest or weed control at 50 µg/mL ([2]; Puccinia recondita, 168 h, test suspension 50 ppm, wheat seedlings): 100%
COC(=O)c1ccn(Cc2ccc(-c3noc(C(F)(F)F)n3)cc2)c(=O)c1 [Compound 24, methyl 1,2-dihydro-2-oxo-1-[[4-[5-(trifluoromethyl)-1,2,4-oxadiazol-3-yl]phenyl]methyl]-4-pyridinecarboxylate]			pest or weed control at 10 µg/mL [1, 3]: 100%; pest or weed control at 10 µg/mL [2, 4]: 95%
COC(=O)c1cccc2nn(Cc3ccc(-c4noc(C(F)(F)F)n4)cc3)cc12 [Compound 36, methyl 2-[[4-[5-(trifluoromethyl)-1,2,4-oxadiazol-3-yl]phenyl]methyl]-2H-indazole-4-carboxylate]			pest or weed control at 10 µg/mL [1, 3]: 100%; pest or weed control at 10 µg/mL [2, 4]: 100%
COC(=O)c1cccc2c1cnn2Cc1ccc(-c2noc(C(F)(F)F)n2)cc1 [Compound 49, methyl 1-[[4-[5-(trifluoromethyl)-1,2,4-oxadiazol-3-yl]phenyl]methyl]-1H-indazole-4-carboxylate]			pest or weed control at 10 µg/mL [1, 3]: 100%; pest or weed control at 10 µg/mL [2, 4]: 100%
COC(=O)C1COC(Cc2ccc(-c3noc(C(F)(F)F)n3)cc2)=N1 (stereo not drawn) [Compound 74, methyl 4,5-dihydro-2-[[4-[5-(trifluoromethyl)-1,2,4-oxadiazol-3-yl]phenyl]methyl]-4-oxazolecarboxylate]			pest or weed control at 10 µg/mL [1, 3]: 99%; pest or weed control at 10 µg/mL [2, 4]: 51%
NC(=O)C1COC(Cc2ccc(-c3noc(C(F)(F)F)n3)cc2)=N1 (stereo not drawn) [Compound 75, 4,5-dihydro-2-[[4-[5-(trifluoromethyl)-1,2,4-oxadiazol-3-yl]phenyl]methyl]-4-oxazolecarboxamide]			pest or weed control at 10 µg/mL [1, 3]: 100%; pest or weed control at 10 µg/mL [2, 4]: 68%
CCOC(=O)c1cc(C)n(Cc2ccc(-c3noc(C(F)(F)F)n3)cc2)n1 [Compound 110, ethyl 5-methyl-1-[[4-[5-(trifluoromethyl)-1,2,4-oxadiazol-3-yl]phenyl]methyl]-1H-pyrazole-3-carboxylate]			pest or weed control at 10 µg/mL [1, 3]: 100%; pest or weed control at 10 µg/mL [2, 4]: 91%
FC(F)(F)c1nc(-c2ccc(Cn3ccc4ncccc43)cc2)no1 [Compound 136, 1-[[4-[5-(trifluoromethyl)-1,2,4-oxadiazol-3-yl]phenyl]methyl]-1H-pyrrolo[3,2-b]pyridine]			pest or weed control at 10 µg/mL [1, 3]: 100%; pest or weed control at 10 µg/mL [2, 4]: 68%
FC(F)(F)c1nc(-c2ccc(Cn3ncc4cccnc43)cc2)no1 [Compound 147, 1-[[4-[5-(trifluoromethyl)-1,2,4-oxadiazol-3-yl]phenyl]methyl]-1H-pyrazolo[3,4-b]pyridine]			pest or weed control at 10 µg/mL [1, 3]: 100%; pest or weed control at 10 µg/mL [2, 4]: 100%
CN(C)C(=O)C1COC(Cc2ccc(-c3noc(C(F)(F)F)n3)cc2)=N1 (stereo not drawn) [Compound 178, 4,5-dihydro-N,N-dimethyl-2-[[4-[5-(trifluoromethyl)-1,2,4-oxadiazol-3-yl]phenyl]methyl]-4-oxazolecarboxamide]			pest or weed control at 10 µg/mL [1, 3]: 96%; pest or weed control at 10 µg/mL [2, 4]: 68%
COCCNC(=O)c1cc(C)n(Cc2ccc(-c3noc(C(F)(F)F)n3)cc2)n1 [Compound 183, N-(2-methoxyethyl)-5-methyl-1-[[4-[5-(trifluoromethyl)-1,2,4-oxadiazol-3-yl]phenyl]methyl]-1H-pyrazole-3-carboxamide]			pest or weed control at 10 µg/mL [1, 3]: 100%; pest or weed control at 10 µg/mL [2, 4]: 100%
O=C(NCCCl)c1coc(Cc2ccc(-c3noc(C(F)(F)F)n3)cc2)n1 [Compound 204, N-(2-chloroethyl)-2-[[4-[5-(trifluoromethyl)-1,2,4-oxadiazol-3-yl]phenyl]methyl]-4-oxazolecarboxamide]			pest or weed control at 10 µg/mL ([1]; Phakopsora pachyrhizi, 216 h): 100%; pest or weed control at 10 µg/mL ([2]; Puccinia recondita, 168 h): 100%
COC(=O)c1ccc2nn(Cc3ccc(-c4noc(C(F)(F)F)n4)cc3)nc2c1 [compound 23]	100%	100%	
COc1cc(=O)n(Cc2ccc(-c3noc(C(F)(F)F)n3)cc2)nc1Cl [compound 27]			Test A disease control rating [1, 7]: 100%; Test C disease control rating [2, 8]: 100%
COc1cnn(Cc2ccc(-c3noc(C(F)(F)F)n3)cc2)c(=O)c1 [compound 28]			Test A disease control rating [1, 7]: 100%; Test C disease control rating [2, 8]: 100%
O=[N+]([O-])c1ccc2c(c1)c(Br)nn2Cc1ccc(-c2noc(C(F)(F)F)n2)cc1 [compound 30]	25%	0%	
CSc1nn(Cc2ccc(-c3noc(C(F)(F)F)n3)cc2)nc1C [compound 31]	100%	100%	
Cc1cc2c(cnn2Cc2ccc(-c3noc(C(F)(F)F)n3)cc2)cc1Br [compound 32]	96%	68%	
Cc1cc2nn(Cc3ccc(-c4noc(C(F)(F)F)n4)cc3)cc2cc1Br [compound 33]	100%	68%	
Cc1nn(Cc2ccc(-c3noc(C(F)(F)F)n3)cc2)c2cccc(Br)c12 [compound 34]	71%	55%	

SMILES	Test A disease control rating [1, 5]	Test C disease control rating [2, 6]	other results
COC(=O)c1ccc2nn(Cc3ccc(-c4noc(C(F)(F)F)n4)cc3)cc2c1 [compound 35]	100%	98%	
Cc1c2c(Br)cccc2nn1Cc1ccc(-c2noc(C(F)(F)F)n2)cc1 [compound 37]	99%	86%	
FC(F)(F)c1nc(-c2ccc(Cn3cc4c(I)cc(Cl)cc4n3)cc2)no1 [compound 38]	78%	68%	
FC(F)(F)c1nc(-c2ccc(Cn3ncc4c(I)cc(Cl)cc43)cc2)no1 [compound 39]	44%	28%	
CSc1nnn(Cc2ccc(-c3noc(C(F)(F)F)n3)cc2)c1C [compound 40]	100%	92%	
COC(=O)c1ccc2cnn(Cc3ccc(-c4noc(C(F)(F)F)n4)cc3)c2c1 [compound 41]	100%	98%	
COC(=O)c1ccc2cn(Cc3ccc(-c4noc(C(F)(F)F)n4)cc3)nc2c1 [compound 42]	100%	92%	
CON(C)C(=O)c1nn(Cc2ccc(-c3noc(C(F)(F)F)n3)cc2)c2ccccc12 [compound 43]	100%	96%	
N#CCNC(=O)c1nn(Cc2ccc(-c3noc(C(F)(F)F)n3)cc2)c2ccccc12 [compound 44]	100%	95%	
CNC(=O)c1nn(Cc2ccc(-c3noc(C(F)(F)F)n3)cc2)c2ccccc12 [compound 45]	100%	99%	
COCCNC(=O)c1nn(Cc2ccc(-c3noc(C(F)(F)F)n3)cc2)c2ccccc12 [compound 46]	100%	100%	
COC(=O)c1cccc2cnn(Cc3ccc(-c4noc(C(F)(F)F)n4)cc3)c12 [compound 47]	100%	74%	
COC(=O)c1ccc2c(cnn2Cc2ccc(-c3noc(C(F)(F)F)n3)cc2)c1 [compound 48]	100%	89%	
COC(=O)c1cccc2cn(Cc3ccc(-c4noc(C(F)(F)F)n4)cc3)nc12 [compound 50]	13%	28%	
Cc1nn(Cc2ccc(-c3noc(C(F)(F)F)n3)cc2)c2ccc(Br)cc12 [compound 51]	99%	68%	
Cc1c2cc(Br)ccc2nn1Cc1ccc(-c2noc(C(F)(F)F)n2)cc1 [compound 52]	99%	80%	
FC(F)(F)c1nc(-c2ccc(Cn3ncc4c(Cl)cc(Br)cc43)cc2)no1 [compound 53]	0%	9%	
FC(F)(F)c1nc(-c2ccc(Cn3cc4c(Cl)cc(Br)cc4n3)cc2)no1 [compound 54]	99%	68%	
O=C(O)c1cnn(Cc2ccc(-c3noc(C(F)(F)F)n3)cc2)c1 [compound 55]	100%	99%	

Reference: patent US20240090503A1, “FUNGICIDAL OXADIAZOLES AND THEIR MIXTURES” (FMC CORPORATION, priority 2020, published 2024)
